Source: patent US12297206B2, “Method for synthesizing furoimidazopyridine compound, polymorphic substance and polymorphic substance of salt” (HANGZHOU HIGHLIGHTLL PHARMACEUTICAL CO., LTD, priority 2019, dated 2025)
≈ marks a conversion by molar mass, not a printed value. Where two headings read alike, the source gives them in different places.

Experiments:
[1] = Stability test 1: short-term solid state stability (high temperature and accelerated conditions); type: physicochemical
Protocol: For the open samples, the bottle cap was removed and the bottle neck was coverred with an aluminium-foil paper stabbed with pinholes to avoid cross contamination; for the closed samples, the bottled were coverred and sealed tightly. Samples were taken at weeks 1 and 2, respectively, the samples were diluted with a diluent (methanol/water (1/1) (v/v)), the liquid phase was injected according to the chromatographic conditions in Table 22 and the sample purities were determined.
The sample purities were calculated with an area normalization method.

[2] = Dynamic vapour sorption (DVS) moisture absorption; type: physicochemical
[3] = Stability test 1: short-term solid state stability (high temperature and accelerated conditions); type: physicochemical; details: for Stability study: crystal form: 2 weeks (XRPD, DSC); for Appearance in solid state stability test: within 2 weeks, 60° C. and 40° C./75% RH
[4] = room temperature and 50° C., days 3, 7 and 14
Protocol: The sample bottles (wrapped with a tin foil paper to protect from light) in a room temperature system were placed on Labquaker rotator for rotating 360°; the samples in a high temperature system were placed in a 50° C. thermostatic shaking incubator and were slurried, part of the suspension samples were taken on days 3, 7 and 14, respectively and were centrifuged, solid residue was collected, the solvents were volatilized at room temperature (20-25° C.) to dryness, the solid was collected.

[5] = good solvents tetrahydrofuran, ethanol, isopropanol, methanol, acetone
Source text: If no solid was precipitated, the system was stirred with the bottle opened until solid was precipitated.

[6] = dissolved at about 50° C., transferred to −20° C.
Protocol: The temperature was maintained for 15 minutes, the solution was filterred with a 0.45 μm membrane when hot and was transferred to new sample bottles, the bottled were immediately transferred to a −20° C. refrigerator overnight, the solvent systems wherein solid was precipitated were centrifuged and the solid was collected, the solvent was volatilized at room temperature (20-25° C.) to dryness; the solvent systems wherein no solid was precipitated were placed to a −20° C. refrigerator until a large amount of solids precipitated.

[7] = dissolved at about 50° C., slowly cooled at 6° C./h
Protocol: The temperature was maintained for 15 minutes, the solution was filterred with a 0.45 μm membrane when hot and transferred to new sample bottles, slowly cooled to room temperature at 6° C./h overnight, the sample bottles were placed in a refrigerator (2-8° C.), the solvent systems wherein solid precipitated were centrifuged and the solid was collected, the solvent was volatilized at room temperature (20-25° C.) to dryness; the solvent systems wherein no solid precipitated were placed in a −20° C. refrigerator until a large amount of solids precipitated.

[8] = evaporated at room temperature
TYK2 = target: T1, TYK2 (Homo sapiens, UniProt P29597); experiment: TYK2 biochemical test (33P-ATP filter binding kinase assay, Reaction Biology Corp); details: kinase reaction 2 hours at room temperature
T1 construct: purchased Reaction Biology Corp, Malvern, PA (contract assay service)
T1 sequence (P29597 whole entry): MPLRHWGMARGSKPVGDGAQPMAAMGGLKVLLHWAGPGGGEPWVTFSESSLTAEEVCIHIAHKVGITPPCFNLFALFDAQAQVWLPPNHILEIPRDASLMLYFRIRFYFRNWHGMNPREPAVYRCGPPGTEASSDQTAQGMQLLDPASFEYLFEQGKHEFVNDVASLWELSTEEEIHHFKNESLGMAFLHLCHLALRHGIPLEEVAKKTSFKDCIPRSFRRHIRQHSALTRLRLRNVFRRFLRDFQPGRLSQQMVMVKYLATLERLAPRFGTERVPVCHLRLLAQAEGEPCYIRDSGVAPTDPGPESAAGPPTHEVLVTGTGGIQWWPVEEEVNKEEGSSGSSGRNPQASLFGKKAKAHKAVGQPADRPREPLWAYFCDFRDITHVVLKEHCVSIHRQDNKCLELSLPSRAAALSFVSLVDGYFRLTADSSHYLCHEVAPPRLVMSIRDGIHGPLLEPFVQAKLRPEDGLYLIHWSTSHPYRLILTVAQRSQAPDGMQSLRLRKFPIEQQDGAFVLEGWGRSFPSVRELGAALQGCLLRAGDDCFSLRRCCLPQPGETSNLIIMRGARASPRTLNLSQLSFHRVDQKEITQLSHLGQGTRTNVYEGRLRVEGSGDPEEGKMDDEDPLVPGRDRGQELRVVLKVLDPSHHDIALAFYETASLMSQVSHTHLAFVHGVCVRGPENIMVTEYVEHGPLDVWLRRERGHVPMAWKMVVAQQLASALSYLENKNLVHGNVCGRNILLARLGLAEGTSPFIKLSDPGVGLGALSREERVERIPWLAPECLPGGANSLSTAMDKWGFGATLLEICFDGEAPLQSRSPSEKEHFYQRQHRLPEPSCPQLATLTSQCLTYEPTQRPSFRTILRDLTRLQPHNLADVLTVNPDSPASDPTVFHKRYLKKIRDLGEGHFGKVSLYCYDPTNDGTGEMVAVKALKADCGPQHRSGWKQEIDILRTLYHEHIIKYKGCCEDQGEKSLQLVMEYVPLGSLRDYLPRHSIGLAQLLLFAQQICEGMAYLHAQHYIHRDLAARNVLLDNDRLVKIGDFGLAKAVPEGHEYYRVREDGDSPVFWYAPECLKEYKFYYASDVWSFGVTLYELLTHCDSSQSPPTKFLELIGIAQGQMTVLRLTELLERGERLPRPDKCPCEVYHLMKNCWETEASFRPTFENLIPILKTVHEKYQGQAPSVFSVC
Protocol: A suitable amount of a compound of formula I was weighed for TYK2 biochemical test.
The test was conducted by Reaction Biology Corp, Malvern, PA (Anastassiadis et al. Nat Biotechnol. 2011; 29(11):1039-45). The steps are briefly described as follows.
Basic reaction buffer: 20 mM Hepes (pH 7.5), 10 mM MgCl2, 1 mM EGTA, 0.02% Brij35, 0.02 mg/ml BSA, 0.1 mM Na3VO4, 2 mM DTT and 1% DMSO. The required cofactors were added to each kinase reaction.
1. Preparing the designated substrate in the newly prepared basic reaction buffer;
2. Transferring the required cofactor to the above matrix solution;
3. Transferring the designated kinase to the substrate solution and mixing well slightly;
4. Transferring a compound of formula I in DMSO to a kinase reaction mixture with Acoustic technique (Echo550; nanoliter range), culturing for 20 minutes at room temperature;
5. Introducing ^33P-ATP (specific activity: 10 μCi/μl) to the reaction mixture to trigger a reaction;
6. Culturing at room temperature and conducting a kinase reaction for 2 hours;
7. Plotting the reaction on P81 ion exchange paper;
8. Testing the kinase activity with a filter binding assay.

JAK1 = JAK1 (Homo sapiens, UniProt P23458); details: as reported for WO2018067422A1; cited from earlier work
Sequence of JAK1 (P23458 whole entry, species assumed): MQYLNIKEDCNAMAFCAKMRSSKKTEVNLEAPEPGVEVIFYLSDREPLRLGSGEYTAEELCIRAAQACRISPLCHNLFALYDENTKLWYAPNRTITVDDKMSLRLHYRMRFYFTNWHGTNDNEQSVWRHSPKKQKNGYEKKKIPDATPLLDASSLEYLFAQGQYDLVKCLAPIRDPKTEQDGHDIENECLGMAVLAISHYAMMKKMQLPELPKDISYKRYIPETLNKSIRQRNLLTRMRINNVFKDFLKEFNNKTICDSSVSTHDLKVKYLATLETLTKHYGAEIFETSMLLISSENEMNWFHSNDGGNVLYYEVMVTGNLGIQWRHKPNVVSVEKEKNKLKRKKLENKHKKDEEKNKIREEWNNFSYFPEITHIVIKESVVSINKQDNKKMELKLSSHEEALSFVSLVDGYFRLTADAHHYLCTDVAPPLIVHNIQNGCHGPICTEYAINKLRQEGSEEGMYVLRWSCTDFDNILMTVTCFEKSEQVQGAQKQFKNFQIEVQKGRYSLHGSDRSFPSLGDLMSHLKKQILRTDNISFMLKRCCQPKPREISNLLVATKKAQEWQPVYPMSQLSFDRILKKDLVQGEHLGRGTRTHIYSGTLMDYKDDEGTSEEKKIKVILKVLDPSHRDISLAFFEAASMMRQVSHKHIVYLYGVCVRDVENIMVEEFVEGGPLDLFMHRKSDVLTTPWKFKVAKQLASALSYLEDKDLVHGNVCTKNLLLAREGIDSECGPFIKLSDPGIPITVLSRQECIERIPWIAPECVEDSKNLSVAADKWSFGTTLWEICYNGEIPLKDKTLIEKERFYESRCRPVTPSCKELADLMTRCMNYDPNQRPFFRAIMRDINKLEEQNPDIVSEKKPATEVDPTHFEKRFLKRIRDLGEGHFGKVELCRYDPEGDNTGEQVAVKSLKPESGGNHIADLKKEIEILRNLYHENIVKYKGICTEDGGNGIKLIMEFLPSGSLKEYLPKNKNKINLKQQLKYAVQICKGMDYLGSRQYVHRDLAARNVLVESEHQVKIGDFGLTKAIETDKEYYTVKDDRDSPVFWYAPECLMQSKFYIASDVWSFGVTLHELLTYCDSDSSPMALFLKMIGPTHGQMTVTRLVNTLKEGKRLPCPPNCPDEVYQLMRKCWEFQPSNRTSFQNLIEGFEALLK

[9] = tested on: IL-6-induced STAT3 phosphorylation; details: as reported for WO2018067422A1; cited from earlier work
[10] = tested on: thrombopoietin-induced STAT3 phosphorylation; details: as reported for WO2018067422A1; cited from earlier work
physchem = details: 37 °C, thermodynamic from solid
Protocol: The samples were observed 5 minutes later, a quantity of sample or medium was supplemented to obtain mild suspension, and sampling was conduct at 30 minutes, 2 hour, 4 hours and 24 hours, respectively. The samples were centrifuged for 10 minutes at 12000 rpm to obtain the supernatant, the supernatant was diluted appropriately and was subjected to high performance liquid chromatography.
The sample concentration was calculated with an external standard method.

[11] = fasted-state simulated intestinal fluid (FaSSIF), fassif
[12] = fed-state simulated intestinal fluid (FeSSIF), fessif
[13] = simulated gastric fluid (SGF), simulated gastric fluid

Question: Which “Stability study (purity)” value ([1]; 0 day) does the source give for `Cc1nc2cnc3ccoc3c2n1C1CCC(CC#N)OC1.O=P(O)(O)O` (stereo not shown) here?
Answer: 99.34 Area %

Question: And the “Stability study (purity)” value ([1]; 40° C./75% RH, open, 1 week)?
Answer: 99.33 Area %

Question: What about the “Stability study (purity)” value ([1]; 40° C./75% RH, open, 2 weeks) of the same molecule?
Answer: 99.35 Area %

Question: What about the “Stability study (purity)” value ([1]; 60° C., sealed, 1 week) of the same molecule?
Answer: 99.32 Area %

Question: And the “Stability study (purity)” value ([1]; 60° C., sealed, 2 weeks)?
Answer: 99.16 Area %

Question: And the “Crystal form after moisture absorption (XRPD before and after the DVS test)” value (shortened to “Crystal form after moisture absorption”) [2]?
Answer: doesn't change

Question: And the “Weight gain by moisture absorption (DVS)” value ([2]; at 70% RH)?
Answer: 1.95%

Question: And the “Weight gain by moisture absorption (DVS)” value ([2]; at a humidity of 85% RH)?
Answer: 0.72%

Question: What about the “Weight gain by moisture absorption (DVS)” value ([2]; from 0% RH to 95% RH, 25° C.) of the same molecule?
Answer: 6.5%

Question: What about the “Stability study: crystal form” value ([3]; 40° C./75% RH, open) of the same molecule?
Answer: Unchange

Question: And the “Stability study: crystal form” value ([3]; 60° C., sealed)?
Answer: Unchange

Question: And the “Appearance in solid state stability test” value [3]?
Answer: didn't change

Question: With `Cc1nc2cnc3ccoc3c2n1C1CCC(CC#N)OC1.O=S(=O)(O)c1ccccc1` (stereo not shown) as the molecule, how does the “Crystal form after moisture absorption” value [2] read?
Answer: doesn't change

Question: What about the “Weight gain by moisture absorption (DVS)” value ([2]; at 70% RH) of the same molecule?
Answer: 0.97%

Question: What about the “Weight gain by moisture absorption (DVS)” value ([2]; at a humidity of 85% RH) of the same molecule?
Answer: 0.54%

Question: What about the “Weight gain by moisture absorption (DVS)” value ([2]; from 0% RH to 95% RH, 25° C.) of the same molecule?
Answer: 4.6%

Question: For `Br.Cc1nc2cnc3ccoc3c2n1C1CCC(CC#N)OC1` (stereo not shown), which “Crystal form after moisture absorption” value [2] is on record?
Answer: changed

Question: And the “Weight gain by moisture absorption (DVS)” value ([2]; from 0% RH to 95% RH, 25° C.)?
Answer: 11.84%

Question: Which “Stability study (purity)” value ([1]; 0 day) does the source give for `Cc1nc2cnc3ccoc3c2n1C1CCC(CC#N)OC1.Cc1nc2cnc3ccoc3c2n1C1CCC(CC#N)OC1.O=C(O)C(O)C(O)C(=O)O` (stereo not shown) here?
Answer: 99.22 Area %

Question: And the “Stability study (purity)” value ([1]; 40° C./75% RH, open, 1 week)?
Answer: 99.31 Area %

Question: What about the “Stability study (purity)” value ([1]; 40° C./75% RH, open, 2 weeks) of the same molecule?
Answer: 99.36 Area %

Question: And the “Stability study (purity)” value ([1]; 60° C., sealed, 1 week)?
Answer: 99.34 Area %

Question: And the “Stability study (purity)” value ([1]; 60° C., sealed, 2 weeks)?
Answer: 99.36 Area %

Question: What about the “Crystal form after moisture absorption” value [2] of the same molecule?
Answer: doesn't change

Question: What about the “Weight gain by moisture absorption (DVS)” value ([2]; at a humidity of 80% RH) of the same molecule?
Answer: 1.80%

Question: What about the “Weight gain by moisture absorption (DVS)” value ([2]; from 0% RH to 95% RH, 25° C.) of the same molecule?
Answer: 6.85%

Question: And the “Crystal form after slurrying” value ([4]; Acetone)?
Answer: Crystal form O

Question: And the “Crystal form after slurrying” value ([4]; Ethanol)?
Answer: Crystal form O

Question: What about the “Crystal form after slurrying” value ([4]; Ethyl acetate) of the same molecule?
Answer: Crystal form O

Question: And the “Crystal form after slurrying” value ([4]; Isopropanol)?
Answer: Crystal form O

Question: What about the “Crystal form after slurrying” value ([4]; Methanol) of the same molecule?
Answer: Crystal form O

Question: What about the “Crystal form after slurrying” value ([4]; Methyl tert-butyl ether) of the same molecule?
Answer: Crystal form O

Question: And the “Crystal form after slurrying” value ([4]; N-heptane)?
Answer: Crystal form O

Question: And the “Crystal form after slurrying” value ([4]; Tetrahydrofuran)?
Answer: Crystal form O

Question: What about the “Crystal form after slurrying” value ([4]; Toluene) of the same molecule?
Answer: Crystal form O

Question: What about the Product crystal form ([5]; Anti-solvent Ethyl acetate) of the same molecule?
Answer: Crystal form O

Question: What about the Product crystal form ([5]; Anti-solvent Methyl tert-butyl ether) of the same molecule?
Answer: Crystal form O

Question: What about the Product crystal form ([5]; Anti-solvent N-heptane) of the same molecule?
Answer: Crystal form O

Question: And the Product crystal form ([5]; Anti-solvent Toluene)?
Answer: Crystal form O

Question: What about the “Crystal form of precipitated solid” value ([6]; Ethanol) of the same molecule?
Answer: Crystal form O

Question: And the “Crystal form of precipitated solid” value ([6]; Isopropanol)?
Answer: Crystal form O

Question: What about the “Crystal form of precipitated solid” value ([6]; Methanol) of the same molecule?
Answer: Crystal form O

Question: And the “Crystal form of precipitated solid” value ([7]; Ethanol)?
Answer: Crystal form O

Question: What about the “Crystal form of precipitated solid” value ([7]; Isopropanol) of the same molecule?
Answer: Crystal form O

Question: What about the “Crystal form of precipitated solid” value ([8]; Acetone) of the same molecule?
Answer: Crystal form O

Question: And the “Crystal form of precipitated solid” value ([8]; Ethanol)?
Answer: Crystal form O

Question: And the “Crystal form of precipitated solid” value ([8]; Isopropanol)?
Answer: Crystal form O

Question: What about the “Crystal form of precipitated solid” value ([8]; Methanol) of the same molecule?
Answer: Crystal form O

Question: What about the “Crystal form of precipitated solid” value ([8]; Tetrahydrofuran) of the same molecule?
Answer: Crystal form O

Question: What about the “Stability study: crystal form” value ([3]; 40° C./75% RH, open) of the same molecule?
Answer: Unchange

Question: What about the “Stability study: crystal form” value ([3]; 60° C., sealed) of the same molecule?
Answer: Unchange

Question: What about the “Appearance in solid state stability test” value [3] of the same molecule?
Answer: didn't change

Question: For `Cc1nc2cnc3ccoc3c2n1[C@H]1CC[C@H](CC#N)OC1` [compound of formula I, 2-[(2R,5S)-5-[2-methylfuro[3,2-b]imidazo[4,5-d]pyridin-1-yl]tetrahydropyran-2-yl] acetonitrile], which IC50 (TYK2) is on record?
Answer: < 0.01 µM

Question: What about the JAK1 inhibition (JAK1) of the same molecule?
Answer: potent and selective JAK1 inhibitor

Question: And the “Inhibition of IL-6-induced STAT3 phosphorylation” value [9]?
Answer: selective inhibition

Question: What about the “Inhibition of thrombopoietin-induced STAT3 phosphorylation” value [10] of the same molecule?
Answer: does not show selective inhibition

Question: Which results are given for `Cc1nc2cnc3ccoc3c2n1[C@H]1CC[C@H](CC#N)OC1`?
Answer: Stability study (purity) ([1]; 0 day): 99.80 Area %; Stability study (purity) ([1]; 40° C./75% RH, open, 1 week): 99.82 Area %; Stability study (purity) ([1]; 40° C./75% RH, open, 2 weeks): 99.82 Area %; Stability study (purity) ([1]; 60° C., sealed, 1 week): 99.81 Area %; Stability study (purity) ([1]; 60° C., sealed, 2 weeks): 99.83 Area %; Crystal form after moisture absorption (XRPD before and after the DVS test) [2]: the crystal form changes; Weight gain by moisture absorption (DVS) ([2]; from 0% RH to 95% RH, 25° C.): 13.86%; Stability study: crystal form ([3]; 40° C./75% RH, open): Change; Stability study: crystal form ([3]; 60° C., sealed): Change; Appearance in solid state stability test [3]: didn't change; solubility at 30 min (physchem; [11]): 2590 µg/mL (≈ 8.74 mM); solubility at 2 h (physchem; [11]): 1860 µg/mL (≈ 6.28 mM); solubility at 4 h (physchem; [11]): 1810 µg/mL (≈ 6.11 mM); solubility at 24 h (physchem; [11]): 1560 µg/mL (≈ 5.26 mM); solubility at 30 min (physchem; [12]): 2910 µg/mL (≈ 9.82 mM); solubility at 2 h (physchem; [12]): 2200 µg/mL (≈ 7.42 mM); solubility at 4 h (physchem; [12]): 2610 µg/mL (≈ 8.81 mM); solubility at 24 h (physchem; [12]): 3290 µg/mL (≈ 11.1 mM); solubility at 30 min (physchem; [13]): 16400 µg/mL (≈ 55.3 mM); solubility at 2 h (physchem; [13]): 17000 µg/mL (≈ 57.2 mM); solubility at 4 h (physchem; [13]): 15200 µg/mL (≈ 51.2 mM); solubility at 24 h (physchem; [13]): 16400 µg/mL (≈ 55.4 mM); solubility at 30 min (physchem; water): 1350 µg/mL (≈ 4.56 mM); solubility at 2 h (physchem; water): 1730 µg/mL (≈ 5.84 mM); solubility at 4 h (physchem; water): 1490 µg/mL (≈ 5.03 mM); solubility at 24 h (physchem; water): 1430 µg/mL (≈ 4.83 mM)
